Here are results for 18 compounds from PubChem BioAssay (NCI).

Assay in all cases: inhibition of tumour cell growth, NCI panel, 48 h
Test [1] relates to COLO 205 colon.
In test [2] the test system is IGROV1 ovarian.
Test [3] relates to SW-620 colon.
The test system of test [4] is CAKI-1 renal.
Test [5] concerns EKVX NSCLC.
For test [6], the system named is A498 renal.
Test [7] has as its system NCI-H226 lung.
The subject of test [8] is MDA-MB-435.
In test [9] the test system is MCF7 breast.
The subject of test [10] is PC-3 prostate.

Each structure is given as a SMILES string.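 Exposure lasted 48 hours, with cells grown in 96-well plates and compounds tested at five concentrations. GI50 is the concentration that inhibits growth by half. TGI denotes the concentration required for complete inhibition of growth.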

On to `CSc1snc2sc3c(Cl)nnnc3c12`, for which the TGI in [1] came out at 24 µM; in test [2] it was 37.3 µM; in test [3] it was 16.1 µM; in [4], 15.9 µM; in test [5], 38.6 µM; in [6], 28.7 µM.
Consider `COc1ccc2oc(C(=O)O)c3c2c1CCC3CCC(=O)O` (configuration not stated), for which the TGI in test [1], in test [2], in test [3], in test [5] and in [6] was over 100 µM each time.
On to `CCCCCCCCCC(=O)OCC1OC(n2cc(F)c(=O)[nH]c2=O)C(NC(=O)OCc2ccccc2)C(OC(=O)CCCCCCCCC)C1O` (configuration not stated), for which the TGI in [1], in test [2], in test [3], in test [4], in [5] and in test [6] was over 100 µM each time.
Consider `COc1ccc(/C=C2\CCC(CCN(C)C)(C3=CCCC3)C2=O)cc1Br` (configuration not stated), for which the TGI in [1] stood at 3.01 µM; in test [2], 14.7 µM; in [3], 20.3 µM; in test [4], 21.2 µM; in test [5] it was 8.62 µM; in [7] it was 31.4 µM. In [6], this compound came in with a TGI of 23.5 µM.
Take `Nc1ccc(-c2cccs2)cc1NC(=O)c1ccc(CCCC(=O)Nc2ccc(C3CC3N)cc2)cc1` (configuration not stated): the GI50 was 2.44 µM in test [1]; 4.8 µM in test [2]; 1.74 µM in test [8]; over 100 µM in [4]; 3.5 µM in test [5]; 2.7 µM in test [7]. Also, in [6], the GI50 is 20.4 µM. Also, the TGI in test [1] is over 100 µM; in test [2] it was over 100 µM; in test [8] it was 4 µM; in test [4], over 100 µM; in test [5] it was over 100 µM; in [7], 7.57 µM. Besides, in test [6], the TGI was 92 µM.
Consider `C=C1CC2CC(O)CC(C1)C2` (configuration not stated), for which the TGI in test [1], in test [2], in test [3], in [4], in test [5] and in test [7] was over 100 µM throughout. Further, the TGI in [6] was over 100 µM.
Consider `Cc1ccc(C(=O)/C=C/c2cccc([N+](=O)[O-])c2)cc1`, for which the TGI in test [1] is over 55.9 µM; in test [2], over 100 µM; in test [3], 43.7 µM; in test [4], over 100 µM; in [5], over 100 µM; in [7] it was over 100 µM. In test [6], the TGI is over 100 µM.
Turning to `CCCCNC(=O)C1C2CCC(O2)C1C(=O)O` (configuration not stated), the TGI was 32.5 µM in [1]; over 100 µM in test [2]; 10.6 µM in [3]; 65.6 µM in test [5]; 35.3 µM in [7]; 32.4 µM in [6].
Consider `CC(=O)O[C@@]1(C)[C@@H](C)C(=O)O[C@@H]2CCN3CC=C(COC(=O)[C@]1(C)O)[C@H]23`, for which the TGI in [1], in test [2], in test [3], in [4] and in test [7] was over 100 µM throughout.
In the case of `O=C(N/N=C1\C(=O)N(c2nccs2)C(=O)C(=O)C1c1nc2ccccc2s1)c1ccccc1O` (configuration not stated), the TGI in test [1], in test [2], in [3], in test [4], in test [5] and in test [7] was over 100 µM in each case. The TGI in [6] is over 100 µM.
For `C/C=C(\CCOS(=O)(=O)c1ccc(C)cc1)[Si](C)(C)C`, the TGI in test [1], in [2], in test [3], in test [5] and in test [6] was over 100 µM each time.
Turning to `CCc1cc(CCC(=O)Nc2ccccc2[N+](=O)[O-])[nH]c(=S)n1`, the TGI in [1], in test [2], in test [3], in test [5] and in test [7] was over 100 µM throughout.
For `Cc1cccc2c1CCC21OC(=O)c2c1ccc1ccccc21` (configuration not stated), the TGI in test [1], in [2], in test [3], in test [4], in test [5] and in test [7] was over 100 µM each time. The compound also came in with a TGI in [6] of 53.4 µM.
`Nc1n[n+](-c2ccccc2)no1`: the TGI in test [1], in test [2], in test [3], in test [4], in [5] and in [7] was over 100 µM each time. Also, the TGI in test [6] was over 100 µM.
Turning to `O=C(CC(=O)c1cccc2ccccc12)C(=O)NC1C2CC3CC(C2)CC1C3` (configuration not stated), the TGI in [1], in test [2], in test [3], in test [4], in [5] and in test [7] was over 100 µM each time. This compound registered a TGI in test [6] of over 100 µM.
In the case of `CC(C(N)C(=O)NC(C(=O)O)C1OC(n2ccc(=O)[nH]c2=O)C(O)C1O)C(O)c1ccc(O)cn1` (configuration not stated), the TGI in test [1], in test [2], in test [8], in test [3], in test [4] and in test [9] was over 100 µM throughout. Besides, the TGI in test [5] and in test [10] was over 100 µM throughout.
On to `C=C1C(OC(=O)/C=C/c2ccccc2)CC(OC(C)=O)C2(C)C1CC1CC(OC(C)=O)C(C)=C(C(OC(C)=O)C2OC(C)=O)C1(C)C` (configuration not stated), for which the TGI in test [1], in [2], in test [3], in test [4], in [7] and in test [6] was over 100 µM in each case.
Turning to `O=C(O/N=C1/CCC/C1=C\c1ccccc1)c1ccc(Cl)c(Cl)c1`, the TGI in [1], in [2], in test [3], in test [4], in test [5] and in [7] was over 100 µM in each case. In test [6], this compound yielded a TGI of over 100 µM.
